Literature values, collected in patent publication US20050232957A1, “Compositions and methods for moisturizing skin” (priority 2004, published 2005).

Details: person, one month after starting treatment

CS(=O)(=O)c1ccc(C2=C(c3ccccc3)C(=O)OC2)cc1 [rofecoxib]
aquagenic wrinkling of the palms (AWP): developed AWP
